In PubChem BioAssay AID1963434 (Molecular Pharmacology Branch, DTP, NCI, 2024):

Tested on: 755483-174-R-J1-PDC complex spheroid growth, percent test/control
Assay: Anticancer human tumor 755483-174-R-J1-PDC patient-derived rhabdomyosarcoma cell line growth inhibition [Asc]
Conditions: for IC50: curve of first compound; for viability, T/C: stronger effect = lower value; active means viability on the fitted dose curve at most 10% of control; inactive means the rest
How it was run: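 Stromal components (HUVEC and hMSC) are co-assembled with the cancer cells into multicellular spheroids. Drugs are then added singly or paired, at concentrations falling by half-log increments from a clinically achievable maximum, capped at 10 microM without known Cmax.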

[1] = second compound 0.1 µM, first compound 0.0316 µM
[2] = second compound 0.1 µM, first compound 0.1 µM
[3] = second compound 0.1 µM, first compound 0.316 µM
[4] = second compound 0.1 µM, first compound 1 µM
[5] = second compound 0.1 µM, first compound 3.16 µM
[6] = second compound 0.1 µM, first compound 10 µM
[7] = second compound 0.316 µM, first compound 0.0316 µM
[8] = second compound 0.316 µM, first compound 0.1 µM
[9] = second compound 0.316 µM, first compound 0.316 µM
[10] = second compound 0.316 µM, first compound 1 µM
[11] = second compound 0.316 µM, first compound 3.16 µM
[12] = second compound 0.316 µM, first compound 10 µM
[13] = second compound 1 µM, first compound 0.0316 µM
[14] = second compound 1 µM, first compound 0.1 µM
[15] = second compound 1 µM, first compound 0.316 µM
[16] = second compound 1 µM, first compound 1 µM
[17] = second compound 1 µM, first compound 3.16 µM
[18] = second compound 1 µM, first compound 10 µM
[19] = second compound 3.16 µM, first compound 0.0316 µM
[20] = second compound 3.16 µM, first compound 0.1 µM
[21] = second compound 3.16 µM, first compound 0.316 µM
[22] = second compound 3.16 µM, first compound 1 µM
[23] = second compound 3.16 µM, first compound 3.16 µM
[24] = second compound 3.16 µM, first compound 10 µM
[25] = second compound 10 µM, first compound 0.0316 µM
[26] = second compound 10 µM, first compound 0.1 µM
[27] = second compound 10 µM, first compound 0.316 µM
[28] = second compound 10 µM, first compound 1 µM
[29] = second compound 10 µM, first compound 3.16 µM
[30] = second compound 10 µM, first compound 10 µM
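Further: spheroids exposed to compounds for seven days before readout.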

C#Cc1c(F)ccc2cc(O)cc(-c3ncc4c(N5CC6CCC(C5)N6)nc(OCC56CCCN5CC(F)C6)nc4c3F)c12 (stereo not given) + Cc1c(S(C)(=O)=O)c(-c2cc(F)cc(N3CCN(c4ccc(NS(=O)(=O)c5ccc(NC(CCN6CCC(C(=O)OCCCP(=O)(O)O)CC6)CSc6ccccc6)c(S(=O)(=O)C(F)(F)F)c5)cc4)CC3)c2)c(-c2ccc(Cl)cc2)n1C(C)C
1280 nM: IC50 (second compound 0.316 µM)
inactive: viability, T/C [1] 60.1% | viability, T/C [2] 65.8% | viability, T/C [3] 67.2% | viability, T/C [4] 47.9% | viability, T/C [5] 36.6% | viability, T/C [6] 12.6% | viability, T/C [7] 49% | viability, T/C [8] 63.5% | viability, T/C [9] 47.6% | viability, T/C [10] 55.4% | viability, T/C [11] 35.8% | viability, T/C [12] 10.3% | viability, T/C [13] 44.9% | viability, T/C [14] 49.5% | viability, T/C [15] 39.1% | viability, T/C [16] 39.1% | viability, T/C [17] 27.3% | viability, T/C [19] 42.3% | viability, T/C [20] 36.8% | viability, T/C [21] 41.5% | viability, T/C [22] 33.6% | viability, T/C [23] 23.8% | viability, T/C [25] 37.9% | viability, T/C [26] 35.3% | viability, T/C [27] 45.4% | viability, T/C [28] 35.9% | viability, T/C [29] 20.8% | viability, T/C [30] 17.5%
1200 nM: IC50 (second compound 0.1 µM)
< 31.6 nM: IC50 (second compound 1 µM) | IC50 (second compound 3.16 µM) | IC50 (second compound 10 µM)
active: viability, T/C [18] 5.81% | viability, T/C [24] 4.86%

C=C(F)C(=O)N1CCN(c2nc(OCC3CCCN3C)nc3c2CCN(c2cccc4cccc(Cl)c24)C3)CC1CC#N (stereo not given) + Cc1c(S(C)(=O)=O)c(-c2cc(F)cc(N3CCN(c4ccc(NS(=O)(=O)c5ccc(NC(CCN6CCC(C(=O)OCCCP(=O)(O)O)CC6)CSc6ccccc6)c(S(=O)(=O)C(F)(F)F)c5)cc4)CC3)c2)c(-c2ccc(Cl)cc2)n1C(C)C
active: viability, T/C [5] 8.51% | viability, T/C [6] 0.1% | viability, T/C [12] 0.52% | viability, T/C [17] 5.1% | viability, T/C [18] 1.75% | viability, T/C [23] 8.95% | viability, T/C [24] 0.11% | viability, T/C [30] 0.16%
< 31.6 nM: IC50 (second compound 0.316 µM) | IC50 (second compound 1 µM) | IC50 (second compound 3.16 µM) | IC50 (second compound 10 µM)
235 nM: IC50 (second compound 0.1 µM)
inactive: viability, T/C [1] 46.4% | viability, T/C [2] 58.9% | viability, T/C [3] 49.7% | viability, T/C [4] 30.2% | viability, T/C [7] 39.3% | viability, T/C [8] 48.7% | viability, T/C [9] 39.4% | viability, T/C [10] 33.4% | viability, T/C [11] 10.8% | viability, T/C [13] 40.9% | viability, T/C [14] 37.9% | viability, T/C [15] 32% | viability, T/C [16] 20.3% | viability, T/C [19] 35% | viability, T/C [20] 27% | viability, T/C [21] 30.6% | viability, T/C [22] 16.5% | viability, T/C [25] 42.9% | viability, T/C [26] 41.7% | viability, T/C [27] 34% | viability, T/C [28] 20.6% | viability, T/C [29] 11.8%

CCN1C(C(=O)NC23CCC(C(=O)O)(CC2)CC3)C(c2cccc(Cl)c2F)C2(C(=O)Nc3cc(Cl)ccc32)C12CCCCC2 (stereo not given) + Cc1c(S(C)(=O)=O)c(-c2cc(F)cc(N3CCN(c4ccc(NS(=O)(=O)c5ccc(NC(CCN6CCC(C(=O)OCCCP(=O)(O)O)CC6)CSc6ccccc6)c(S(=O)(=O)C(F)(F)F)c5)cc4)CC3)c2)c(-c2ccc(Cl)cc2)n1C(C)C
inactive: viability, T/C (second compound 0.1 µM, first compound 0.00949 µM) 68.7% | viability, T/C (second compound 0.1 µM, first compound 0.03 µM) 60.5% | viability, T/C (second compound 0.1 µM, first compound 0.0949 µM) 57.5% | viability, T/C (second compound 0.1 µM, first compound 0.3 µM) 61.4% | viability, T/C (second compound 0.1 µM, first compound 0.949 µM) 65.5% | viability, T/C (second compound 0.1 µM, first compound 3 µM) 38.7% | viability, T/C (second compound 0.316 µM, first compound 0.00949 µM) 49% | viability, T/C (second compound 0.316 µM, first compound 0.03 µM) 33.9% | viability, T/C (second compound 0.316 µM, first compound 0.0949 µM) 55.8% | viability, T/C (second compound 0.316 µM, first compound 0.3 µM) 30.4% | viability, T/C (second compound 0.316 µM, first compound 0.949 µM) 59.7% | viability, T/C (second compound 0.316 µM, first compound 3 µM) 36.1% | viability, T/C (second compound 1 µM, first compound 0.00949 µM) 48.3% | viability, T/C (second compound 1 µM, first compound 0.03 µM) 47% | viability, T/C (second compound 1 µM, first compound 0.0949 µM) 38.7% | viability, T/C (second compound 1 µM, first compound 0.3 µM) 45.5% | viability, T/C (second compound 1 µM, first compound 0.949 µM) 29.2% | viability, T/C (second compound 1 µM, first compound 3 µM) 40% | viability, T/C (second compound 3.16 µM, first compound 0.00949 µM) 36.8% | viability, T/C (second compound 3.16 µM, first compound 0.03 µM) 34.1% | viability, T/C (second compound 3.16 µM, first compound 0.0949 µM) 34.4% | viability, T/C (second compound 3.16 µM, first compound 0.3 µM) 46.9% | viability, T/C (second compound 3.16 µM, first compound 0.949 µM) 37.9% | viability, T/C (second compound 3.16 µM, first compound 3 µM) 27.5% | viability, T/C (second compound 10 µM, first compound 0.00949 µM) 40.6% | viability, T/C (second compound 10 µM, first compound 0.03 µM) 64.6% | viability, T/C (second compound 10 µM, first compound 0.0949 µM) 52.8% | viability, T/C (second compound 10 µM, first compound 0.3 µM) 38.5% | viability, T/C (second compound 10 µM, first compound 0.949 µM) 40.5% | viability, T/C (second compound 10 µM, first compound 3 µM) 45.9%
1740 nM: IC50 (second compound 0.1 µM)
26.8 nM: IC50 (second compound 10 µM)
< 9.49 nM: IC50 (second compound 0.316 µM) | IC50 (second compound 1 µM) | IC50 (second compound 3.16 µM)

CNC(C)C(=O)NC1CN(S(=O)(=O)c2cccc(S(=O)(=O)N3CCC4CCC(C(=O)NC(c5ccccc5)c5ccccc5)N4C(=O)C(NC(=O)C(C)NC)C3)c2)CCC2CCC(C(=O)NC(c3ccccc3)c3ccccc3)N2C1=O (stereo not given) + Cc1c(S(C)(=O)=O)c(-c2cc(F)cc(N3CCN(c4ccc(NS(=O)(=O)c5ccc(NC(CCN6CCC(C(=O)OCCCP(=O)(O)O)CC6)CSc6ccccc6)c(S(=O)(=O)C(F)(F)F)c5)cc4)CC3)c2)c(-c2ccc(Cl)cc2)n1C(C)C
inactive: viability, T/C (second compound 0.1 µM, first compound 0.00316 µM) 27.1% | viability, T/C (second compound 0.1 µM, first compound 0.01 µM) 20% | viability, T/C [1] 39.1% | viability, T/C [2] 20.2% | viability, T/C [3] 13.6% | viability, T/C [4] 12.2% | viability, T/C (second compound 0.316 µM, first compound 0.00316 µM) 36.2% | viability, T/C (second compound 0.316 µM, first compound 0.01 µM) 24.1% | viability, T/C [7] 15.8% | viability, T/C [8] 24.4% | viability, T/C [9] 14.7% | viability, T/C [10] 12.1% | viability, T/C (second compound 1 µM, first compound 0.00316 µM) 29.8% | viability, T/C (second compound 1 µM, first compound 0.01 µM) 23.5% | viability, T/C [13] 18.2% | viability, T/C [14] 22.5% | viability, T/C [15] 11.4% | viability, T/C [16] 10.7% | viability, T/C (second compound 3.16 µM, first compound 0.00316 µM) 23.7% | viability, T/C (second compound 3.16 µM, first compound 0.01 µM) 15.9% | viability, T/C [19] 16.7% | viability, T/C [20] 12% | viability, T/C [21] 9.91% | viability, T/C [22] 26.8% | viability, T/C (second compound 10 µM, first compound 0.00316 µM) 26.3% | viability, T/C (second compound 10 µM, first compound 0.01 µM) 14.5% | viability, T/C [25] 16.1% | viability, T/C [26] 14.2% | viability, T/C [27] 16.2% | viability, T/C [28] 7.68%
< 3.16 nM: IC50 (second compound 0.1 µM) | IC50 (second compound 0.316 µM) | IC50 (second compound 1 µM) | IC50 (second compound 3.16 µM) | IC50 (second compound 10 µM)
